molecular target: T1, androgen receptor (AR-LBD) (Rattus norvegicus, UniProt P15207); experiment: Evaluation of androgen receptor affinity (PolarScreen Androgen Receptor Competitor Assay Kit, Red; fluorescence polarization); conditions: 22° C. for 5 hours, relative to binding rate of 1 μM DHT, read-out: AR affinity (pEC50) (converted)
T1 construct: 5 μL of 2×AR-LBD/Fluoromone AL Red Complex contained in the kit; purchased Invitrogen
T1 sequence (P15207 651-882 limits assumed): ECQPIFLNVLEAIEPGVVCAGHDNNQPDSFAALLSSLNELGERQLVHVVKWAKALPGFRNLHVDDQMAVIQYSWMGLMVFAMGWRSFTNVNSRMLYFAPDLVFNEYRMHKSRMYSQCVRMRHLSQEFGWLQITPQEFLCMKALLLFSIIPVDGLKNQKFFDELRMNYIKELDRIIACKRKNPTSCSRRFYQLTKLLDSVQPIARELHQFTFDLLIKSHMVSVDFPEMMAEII
Method: Evaluation of an Androgen Receptor Affinity
To examine the interaction of a compound with an androgen receptor, evaluation was carried out in accordance with the following procedure using PolarScreen™ Androgen Receptor Competitor Assay Kit, Red (Invitrogen). To 2 wells each of a 384 well black plate was added 5 μL of the compound solution. To each well was added 5 μL of 2×AR-LBD/Fluoromone AL Red Complex contained in the kit and the samples were reacted at 22° C. for 5 hours. After 5 hours of the reaction, fluorescence polarization was measured and the affinity was evaluated. The affinity of the compound was determined by comparing to the binding rate of 1 μM of dihydrotestosterone (DHT), and quantified the logarithm value (pEC50) of reciprocal value of the effective concentration of the compound which is equal to 50% of the binding rate by applying a 4 parameter goodness-of-fit calculation.

| Compound | EC50 |
| --- | --- |
| Cc1sc(N(CC(=O)Nc2ccccc2)c2ccc(C#N)cc2)nc1C(=O)NS(C)(=O)=O [Compound 425, 2-(N-(2-anilino-2-oxo-ethyl)-4-cyano-anilino)-5-methyl-N-methylsulfonyl-thiazole-4-carboxamide] | 1260 nM |
| COc1ccc(CN(c2ccc(C#N)cc2)c2nc(C(=O)NS(C)(=O)=O)c(Br)s2)cc1 [Example 250, 5-bromo-2-[4-cyano-N-[(4-methoxyphenyl)methyl]anilino]-N-methylsulfonyl-thiazole-4-carboxamide] | 63.1 nM |
| Cc1oc(N(Cc2ccc(C#N)cc2)c2ccc(C#N)cc2)nc1C(=O)NS(C)(=O)=O [Compound 615, 2-[4-cyano-N-[(4-cyanophenyl)methyl]anilino]-5-methyl-N-methylsulfonyl-oxazole-4-carboxamide] | 398 nM |
| CC(=O)c1cccc(CN(c2ccc(C#N)cc2)c2nc(C(=O)NS(C)(=O)=O)c(C)s2)c1 [Compound 95, 2-[N-[(3-acetylphenyl)methyl]-4-cyano-anilino]-5-methyl-N-methylsulfonyl-thiazole-4-carboxamide] | 251 nM |
| Cc1sc(N(Cc2ccccc2)c2ccc(C#N)cc2)nc1C(=O)NS(=O)(=O)CCN1CCOCC1 [Compound 429, 2-(N-benzyl-4-cyano-anilino)-5-methyl-N-(2-morpholinoethylsulfonyl)thiazole-4-carboxamide] | > 2000 nM |
| Cc1sc(N(Cc2cccnc2)c2ccc(C#N)cc2)nc1C(=O)NS(C)(=O)=O [Compound 43, 2-[4-cyano-N-(3-pyridylmethyl)anilino]-5-methyl-N-methylsulfonyl-thiazole-4-carboxamide] | > 2000 nM |
| Cc1cccc(CN(c2ccc(C#N)cc2)c2nc(C(=O)NS(C)(=O)=O)c(Br)s2)c1 [Example 245, 5-bromo-2-[4-cyano-N-(m-tolylmethyl)anilino]-N-methylsulfonyl-thiazole-4-carboxamide] | 79.4 nM |
| COC(C)(C)CCN(c1ccc(C#N)cc1)c1nc(C(=O)NS(C)(=O)=O)c(C)s1 [Compound 444, 2-(4-cyano-N-(3-methoxy-3-methyl-butyl)anilino)-5-methyl-N-methylsulfonyl-thiazole-4-carboxamide] | 1260 nM |
| Cc1sc(N(Cc2ccccc2C(F)F)c2ccc(C#N)cc2)nc1C(=O)NS(C)(=O)=O [Compound 93, 2-[4-cyano-N-[[2-(difluoromethyl)phenyl]methyl]anilino]-5-methyl-N-methylsulfonyl-thiazole-4-carboxamide] | 631 nM |
| Cc1ncc(CN(c2ccc(C#N)cc2)c2nc(C(=O)NS(C)(=O)=O)c(C)s2)s1 [Compound 435, 2-[4-cyano-N-[(2-methylthiazol-5-yl)methyl]anilino]-5-methyl-N-methylsulfonyl-thiazole-4-carboxamide] | 631 nM |
| Cc1sc(N(Cc2ccccc2)c2ccc(OCc3ccccc3)cc2)nc1C(=O)NS(C)(=O)=O [Compound 38, 2-(N-benzyl-4-benzyloxy-anilino)-5-methyl-N-methylsulfonyl-thiazole-4-carboxamide] | > 2000 nM |
| COCC(CN(c1ccc(C#N)cc1)c1nc(C(=O)NS(C)(=O)=O)c(C)s1)c1ccccc1 (stereo not drawn) [Compound 377, 2-(4-cyano-N-(3-methoxy-2-phenyl-propyl)anilino)-5-methyl-N-methylsulfonyl-thiazole-4-carboxamide] | > 2000 nM |
| Cc1sc(N(CCCCO)c2ccc(C#N)cc2)nc1C(=O)NS(C)(=O)=O [Compound 358, 2-[4-cyano-N-(4-hydroxybutyl)anilino]-5-methyl-N-methylsulfonyl-thiazole-4-carboxamide] | > 2000 nM |

Further lines, results first:

| EC50 | Compound |
| --- | --- |
| > 2000 nM | CNC(=O)COc1ccc(N(Cc2ccccc2)c2nc(C(=O)NS(C)(=O)=O)c(C)s2)cc1 [Example 213, 2-[N-benzyl-4-[2-(methylamino)-2-oxo-ethoxy]anilino]-5-methyl-N-methylsulfonyl-thiazole-4-carboxamide] |
| > 2000 nM | Cc1sc(N(Cc2ccccc2)C2CCCCC2)nc1C(=O)NS(C)(=O)=O [Compound 670, 2-[benzyl(cyclohexyl)amino]-5-methyl-N-methylsulfonyl-thiazole-4-carboxamide] |
| 501 nM | Cc1sc(N(CCCc2ccccc2)Cc2ccccc2)nc1C(=O)NS(C)(=O)=O [Example 297, 2-[benzyl(3-phenylpropyl)amino]-5-methyl-N-methylsulfonyl-thiazole-4-carboxamide] |
| 794 nM | Cc1sc(N(C[C@@H]2CCCC[C@H]2O)c2ccc(C#N)cc2)nc1C(=O)NS(C)(=O)=O (racemic) [Compound 411, 2-[4-cyano-N-[[trans-2-hydroxycyclohexyl]methyl]anilino]-5-methyl-N-methylsulfonyl-thiazole-4-carboxamide] |
| > 2000 nM | Cc1sc(N(CCc2ccc(C(N)=O)cc2)Cc2ccccc2)nc1C(=O)NS(C)(=O)=O [Compound 737, 2-[benzyl-[2-(4-carbamoylphenyl)ethyl]amino]-5-methyl-N-methylsulfonyl-thiazole-4-carboxamide] |
| > 2000 nM | Cc1cc(C)n(CCN(Cc2ccccc2)c2nc(C(=O)NS(C)(=O)=O)c(C)s2)n1 [Compound 689, 2-[benzyl-[2-(3,5-dimethylpyrazol-1-yl)ethyl]amino]-5-methyl-N-methylsulfonyl-thiazole-4-carboxamide] |
| 631 nM | Cc1sc(N(Cc2ccccc2)C2CCCC2)nc1C(=O)NS(C)(=O)=O [Compound 669, 2-[benzyl(cyclopentyl)amino]-5-methyl-N-methylsulfonyl-thiazole-4-carboxamide] |
| > 2000 nM | Cc1sc(N(Cc2ccccc2)Cc2cccnc2)nc1C(=O)NS(C)(=O)=O [Example 293, 2-[benzyl(3-pyridylmethyl)amino]-5-methyl-N-methylsulfonyl-thiazole-4-carboxamide] |
| > 2000 nM | Cc1sc(N(Cc2ccccc2)Cc2csc3cc(C(F)(F)F)ccc23)nc1C(=O)NS(C)(=O)=O [Compound 676, 2-[benzyl-[[6-(trifluoromethyl)benzothiophen-3-yl]methyl]amino]-5-methyl-N-methylsulfonyl-thiazole-4-carboxamide] |
| > 2000 nM | Cc1sc(N(CCc2ccc(C(=O)OC(C)(C)C)cc2)Cc2ccccc2)nc1C(=O)NS(C)(=O)=O [Compound 327, tert-butyl 4-[2-[benzyl-[5-methyl-4-(methylsulfonylcarbamoyl)thiazol-2-yl]amino]ethyl]benzoate] |
| > 2000 nM | Cc1sc(N(CCC(O)CO)Cc2ccccc2)nc1C(=O)NS(C)(=O)=O (stereo not drawn) [Compound 712, 2-[benzyl(3,4-dihydroxybutyl)amino]-5-methyl-N-methylsulfonyl-thiazole-4-carboxamide] |
| > 2000 nM | Cc1sc(N(CC2CCCOC2)c2ccc(C#N)cc2)nc1C(=O)NS(C)(=O)=O (stereo not drawn) [Compound 120, 2-[4-cyano-N-(tetrahydropyran-3-ylmethyl)anilino]-5-methyl-N-methylsulfonyl-thiazole-4-carboxamide] |
| 398 nM | Cc1sc(N(CCc2cccc(OC(F)(F)F)c2)Cc2ccccc2)nc1C(=O)NS(C)(=O)=O [Compound 332, 2-[benzyl-[2-[3-(trifluoromethoxy)phenyl]ethyl]amino]-5-methyl-N-methylsulfonyl-thiazole-4-carboxamide] |
| > 2000 nM | Cc1noc(C)c1CCN(Cc1ccccc1)c1nc(C(=O)NS(C)(=O)=O)c(C)s1 [Compound 691, 2-[benzyl-[2-(3,5-dimethylisoxazol-4-yl)ethyl]amino]-5-methyl-N-methylsulfonyl-thiazole-4-carboxamide] |

Reference: patent US10689354B2, “Aminoazole derivative” (Teijin Pharma Limited, priority 2015, dated 2020)
